The record followed here is ChEMBL document CHEMBL1201862, “PubChem BioAssay data set” (2004).

Broadly, the GI50 is the concentration at which growth is held to half of that of the control.

Some test systems named below: RPMI-8226; HCT-116; DLD-1; LOX IMVI; NCI-H522; SF-268; ACHN; CAKI-1; NCI-H226; HOP-92; HOP-18; OVCAR-4; UACC-62; OVCAR-5; HCT-15; HCC 2998; Malme-3M; SK-MEL-2; HOP-62.
Common to all, as to experiment: DTP human tumour cell line panel, 48 h

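Exposure lasted 48 hours, with cells grown in 96-well plates and compounds tested at five concentrations. GI50 = concentration required for 50% inhibition of growth.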 The source made the active and inactive calls. Cut-off read from the data, not from the text of the source: active = GI50 up to about 1.1 µM and inactive = higher.

`N/C(=C\c1ccc(/C=C(\NC(=O)c2ccccc2)c2nc3c([nH]2)C(=O)c2ccccc2C3=O)cc1)c1nc2c([nH]1)C(=O)c1ccccc1C2=O`: the GI50 in the test on RPMI-8226 was 4.33 µM (inactive); in the test with HCT-116, 14.5 µM (inactive); in the test with DLD-1, 12.7 µM (inactive); in the test on LOX IMVI, 18.1 µM (inactive); with NCI-H522 it was 11.9 µM (inactive); with SF-268, 8.47 µM (inactive). Further, the GI50 was 15.6 µM (inactive) with ACHN; 14.3 µM (inactive) in the test on CAKI-1; 11.5 µM (inactive) in the test on NCI-H226; 7.83 µM (inactive) with HOP-92; 14.3 µM (inactive) with HOP-18; 11.2 µM (inactive) in the test with OVCAR-4. Further, the figures for the GI50 with UACC-62, in the test on OVCAR-5 and with HCT-15 were 11.5 µM (inactive), 18.9 µM (inactive) and 13.9 µM, respectively.
For `CCOC(=O)/C=C(\C)c1ccc(OC)cc1`, the GI50 with RPMI-8226, in the test on HCT-116, in the test with HCC 2998, in the test on Malme-3M, in the test on DLD-1 and in the test with LOX IMVI was > 100 µM (inactive) throughout. For the same compound, the GI50 in the test with SF-268 was > 100 µM (inactive); in the test with ACHN, 74.1 µM (inactive); in the test with CAKI-1 it was > 100 µM (inactive); in the test with SK-MEL-2, > 100 µM (inactive); with NCI-H226, > 100 µM (inactive); in the test with HOP-92, > 100 µM (inactive). The GI50 in the test with HOP-18 is > 100 µM (inactive); in the test on OVCAR-4, > 100 µM (inactive); in the test on OVCAR-5, > 100 µM (inactive); with HCT-15, above 100 µM.
Regarding `CCOC(=O)/C(C#N)=C1/SC(C(=O)N/N=C/c2ccc(OC)cc2)=C(N)N1c1ccccc1`, the GI50 in the test with RPMI-8226 was 1.71 µM (inactive); in the test on HCT-116 it was > 100 µM (inactive); with HCC 2998, > 100 µM (inactive); in the test with DLD-1, > 100 µM (inactive); in the test with NCI-H522, > 100 µM (inactive); in the test on SF-268, 97.5 µM (inactive). Besides, the GI50 with ACHN is 28.9 µM (inactive); in the test with NCI-H226 it was > 100 µM (inactive); in the test on HOP-62, 71 µM (inactive); with HOP-92 it was 3.82 µM (inactive); in the test on HOP-18, > 100 µM (inactive); in the test with UACC-62, > 100 µM (inactive). For the same compound, in the test on OVCAR-5, the GI50 is > 100 µM (inactive).
`COCCOCC(=O)N(CCn1ccc(NC(c2ccccc2)(c2ccccc2)c2ccccc2)nc1=O)CCn1cnc2nc(N)[nH]c(=O)c21`: the GI50 in the test on RPMI-8226, in the test on HCT-116, with HCC 2998, in the test on Malme-3M, with DLD-1 and with LOX IMVI was > 100 µM (inactive) in each case. The GI50 in the test on SF-268, with ACHN, with CAKI-1, with SK-MEL-2, in the test on NCI-H226 and with HOP-62 was > 100 µM (inactive) throughout. In addition, the GI50 is > 100 µM (inactive) in the test on HOP-92; > 100 µM (inactive) in the test with HOP-18; > 100 µM (inactive) in the test on OVCAR-4; > 100 µM (inactive) in the test with UACC-62; > 100 µM (inactive) in the test on OVCAR-5; above 100 µM in the test on HCT-15.
